assay: Thermostability test of crystal forms; type: physicochemical; details: solid sample placed at 80° C. for 1 week; change of crystal form detected
Method: 3. Thermostability Test The samples of crystal form D, crystal form H and crystal form G were each placed for 1 week at 80° C., and subsequently the changes of the crystal form were detected.

Row | Compound | The crystal form after test
1 | CC(C)=CCC[C@](C)(O[C@@H]1O[C@H](CO)[C@@H](O)[C@H](O)[C@H]1O)[C@H]1CC[C@]2(C)[C@@H]1[C@H](O)C[C@@H]1[C@@]3(C)CC[C@H](O)C(C)(C)[C@@H]3CC[C@]12C [crystal form G, ginsenoside C-K] | changed to crystal form D
2 | CC(C)=CCC[C@](C)(O[C@@H]1O[C@H](CO)[C@@H](O)[C@H](O)[C@H]1O)[C@H]1CC[C@]2(C)[C@@H]1[C@H](O)C[C@@H]1[C@@]3(C)CC[C@H](O)C(C)(C)[C@@H]3CC[C@]12C [crystal form D, ginsenoside C-K] | no change was observed
3 | CC(C)=CCC[C@](C)(O[C@@H]1O[C@H](CO)[C@@H](O)[C@H](O)[C@H]1O)[C@H]1CC[C@]2(C)[C@@H]1[C@H](O)C[C@@H]1[C@@]3(C)CC[C@H](O)C(C)(C)[C@@H]3CC[C@]12C [crystal form H, ginsenoside C-K] | no change was observed

Source: patent US9643992B2, “Two crystal forms of ginsenoside C-K and method for preparing same” (Zhejiang Hisun Pharmaceutical Co., Ltd., priority 2012, dated 2017)
